# Patent publication US11465998B2, “Therapeutic compounds and methods of use thereof” (Regents of the University of Minnesota, priority 2019, dated 2022)
# Read-outs that look alike come from different tables or passages of the source.
# Target: T1, human NOD2 (Homo sapiens, UniProt Q9HC29)
# T1 construct: host or cells: HEK293
# Assay: human NOD2 specific reporter gene assay (NF-κB induction)
# Type: cell-based
# Method: Example 5: High-throughput screens in porcine blood: Curated compound collections were obtained from the Institute for Therapeutics Discovery & Development at the University of Minnesota. Compound transfers from source (80 nL of 10 mM stocks) to assay plates were performed using an Echo 550 acoustic liquid handler (Labcyte, Sunnyvale, Calif.). For most libraries, a target final concentration of 10 μM of compound (in a final volume of 80 μL for the assay described below) was achieved. Compound plates were hermetically sealed and stored at −80° C. until used. Fresh, heparin-anticoagulated porcine blood from healthy animals were obtained under USDA supervision from Midwest Research Swine, LLC (Glencoe, Minn.). 80 μL of hematocrit-enriched porcine blood (low-speed centrifugation, followed by resuspension in DMEM supplemented with 10% fetal bovine serum) was added to compound plates and incubated for 15 h. The following day, the plates were briefly centrifuged (100 g, 10 min), and supernatants were transferred using an automated ViaFlow 384 transfer device (Integra Biosciences Corp., Hudson, N.H.) to assay plates containing of 10^6 cells/mL of each of the following NF-κB/secreted alkaline phosphatase reporter cells suspended in HEK-Blue Detection Media: human IFN-α/β, human IFN-γ, human TNF-α/IL-1β (InvivoGen, San Diego, Calif.). NF-κB translocation was assayed spectrophotometrically using an alkaline phosphatase-specific chromogen (present in HEK-detection medium as supplied by InvivoGen) at 620 nm using a SpectraMax M4 multimode microplate reader (Molecular Devices, Sunnyvale, Calif.). Z′ factors were computed for each TLR/NOD-specific signals. Hits were defined as signals >4σ (in-plate standard deviations for test compounds above negative control means), were deconvoluted in full dose-response assays in human TLR-2/-3/-4/-5/-7/-8/-9 and NOD-1/NOD-2-specific reporter cells in liquid handler-assisted assay formats as described previously. Example 6: Murine knockout cell-lines: The following reagents were obtained through BEI Resources, NIAID, NIH: the microglial cell line derived from MAL/MyD88 double knockout Mice (NR-9904), and the macrophage cell line derived from TRIF/TRAM knockout mice (NR-9568). Example 7: Human NOD1/2-specific reporter gene assays (NF-κB induction), and TLR-2/-3/-4/-5/-7/-8/-9/STING/ISG counter-screens: The induction of NF-κB was quantified using human TLR-2/-3/-4/-5/-7/-8/-9/NOD-1/NOD-2/STING/ISG-specific, rapid-throughput, liquid handler-assisted reporter gene assays as previously described by us (Wu, W. et al. J. Med. Chem. 2010, 53, 3198-3213; Shukla, N. M. et al. J. Med. Chem. 2010, 53, 4450-4465; Agnihotri, G. et al. J. Med. Chem. 2011, 54, 1490-1510 and Ukani, R. et al. Bioorg. Med. Chem. Lett. 2012, 22, 293-295). HEK293 cells stably co-transfected with the appropriate hTLR and secreted alkaline phosphatase (sAP) were maintained in HEK-Blue™ Selection medium. Stable expression of secreted alkaline phosphatase (sAP) under control of NF-κB/AP-1/IRF promoters is inducible by appropriate innate immune stimuli, and extracellular sAP in the supernatant is proportional to NF-κB/IRF induction. Reporter cells were incubated at a density of ˜10^5 cells/ml in a volume of 80 μl/well, in 384-well, flat-bottomed, cell culture-treated microtiter plates in the presence of graded concentrations of stimuli. sAP was assayed spectrophotometrically using an alkaline phosphatase-specific chromogen (present in HEK-detection medium as supplied by InvivoGen) at 620 nm. Example 8: Multiplexed immunoassays for human cytokines: Fresh human peripheral blood mononuclear cells (hPBMC) were isolated from human blood obtained by venipuncture in Cell Preparation Tubes (CPT, Beckton-Dickinson) with informed consent and as per guidelines approved by the University of Minnesota Human Subjects Experimentation Committee. Aliquots of PBMCs or THP-1 cells (10^5 cells in 100 μL/well) were stimulated for 16 h with graded concentrations of test compounds. […]
# [1] = human NOD2 specific reporter gene assay, arithmetic mean of quadruplicate samples, NA* indicates inactive under the tested conditions, read-out: hNOD2 Agonistic Activity (μM), EC50
# T1 sequence (Q9HC29 whole entry): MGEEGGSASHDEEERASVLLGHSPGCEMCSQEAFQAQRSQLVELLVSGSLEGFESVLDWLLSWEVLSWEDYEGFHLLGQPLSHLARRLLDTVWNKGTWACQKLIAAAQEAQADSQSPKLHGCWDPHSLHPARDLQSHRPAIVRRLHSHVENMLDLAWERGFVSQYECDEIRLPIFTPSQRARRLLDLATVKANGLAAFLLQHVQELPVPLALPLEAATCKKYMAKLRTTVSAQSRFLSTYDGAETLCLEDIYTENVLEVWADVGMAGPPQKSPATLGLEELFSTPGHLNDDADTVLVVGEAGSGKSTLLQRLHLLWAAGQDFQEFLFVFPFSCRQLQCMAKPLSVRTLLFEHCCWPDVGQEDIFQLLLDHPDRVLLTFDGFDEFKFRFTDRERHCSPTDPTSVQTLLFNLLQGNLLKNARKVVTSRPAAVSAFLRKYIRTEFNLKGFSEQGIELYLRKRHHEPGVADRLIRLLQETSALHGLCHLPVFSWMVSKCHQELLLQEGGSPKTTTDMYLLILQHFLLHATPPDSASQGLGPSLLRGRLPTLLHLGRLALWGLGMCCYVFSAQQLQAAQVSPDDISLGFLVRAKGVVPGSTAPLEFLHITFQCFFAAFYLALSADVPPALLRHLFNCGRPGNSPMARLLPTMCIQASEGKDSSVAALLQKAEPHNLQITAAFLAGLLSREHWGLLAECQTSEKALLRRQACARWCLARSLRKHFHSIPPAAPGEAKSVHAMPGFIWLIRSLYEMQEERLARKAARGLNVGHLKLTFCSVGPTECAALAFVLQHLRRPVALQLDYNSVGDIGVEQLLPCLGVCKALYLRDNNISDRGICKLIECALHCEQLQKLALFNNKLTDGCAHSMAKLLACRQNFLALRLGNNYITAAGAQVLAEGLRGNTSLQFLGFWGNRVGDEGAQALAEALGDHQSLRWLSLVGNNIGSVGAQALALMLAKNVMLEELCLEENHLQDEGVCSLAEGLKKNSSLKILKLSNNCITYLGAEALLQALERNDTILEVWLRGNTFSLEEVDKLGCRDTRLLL
Compound,hNOD2-agonistic activity (in words) (human NOD2 reporter gene assay),EC50 [1],"EC50 (human NOD2 reporter gene assay, read-out: EC50 values, human NOD2 agonistic potency)"
"N=C(NO)c1cc(-n2cnc3ccccc32)cs1 [Compound 4b, 4-(1H-Benzo[d]imidazol-1-yl)-N-hydroxythiophene-2-carboximidamide]",inactive,–,–
"CCCCCc1nc2ccccc2n1-c1csc(C(N)=O)n1 [Compound 14, 4-(2-Pentyl-1H-benzo[d]imidazol-1-yl)thiazole-2-carboxamide]",weakly active,7.39 µM,–
"CCCCNC(=O)c1cc(-n2cnc3ccccc32)cs1 [Compound 2e, 4-(1H-Benzo[d]imidazol-1-yl)-N-butylthiophene-2-carboxamide]",inactive,–,–
"O=C(Nc1ccncc1)c1cc(-n2cnc3ccccc32)cs1 [Compound 2i, 4-(1H-Benzo[d]imidazol-1-yl)-N-(pyridin-4-yl)thiophene-2-carboxamide]",inactive,–,–
"NC(=O)c1cncc(-n2cnc3ccccc32)c1 [Compound 3l, 5-(1H-Benzo[d]imidazol-1-yl)nicotinamide]",devoid of activity,–,–
"O=C(NCc1ccccc1)c1cc(-n2cnc3ccccc32)cs1 [Compound 2g, 4-(1H-Benzo[d]imidazol-1-yl)-N-benzylthiophene-2-carboxamide]",inactive,–,–
"CNC(=O)c1cc(-n2cnc3ccccc32)cs1 [Compound 2d, 4-(1H-Benzo[d]imidazol-1-yl)-N-methylthiophene-2-carboxamide]",inactive,–,–
"NC(=O)c1sccc1-n1cnc2ccccc21 [Compound 3c, 3-(1H-Benzo[d]imidazol-1-yl)thiophene-2-carboxamide]",inactive,–,–
"C=C(C)CCc1nc2ccccc2n1-c1csc(C(N)=O)c1 [Compound 7n, 4-(2-(3-Methylbut-3-en-1-yl)-1H-benzo[d]imidazol-1-yl)thiophene-2-carboxamide]",potencies very similar to the butyl analogue (7d),3.24 µM,–
"NC(=O)c1coc(-n2cnc3ccccc32)n1 [Compound 3e, 2-(1H-Benzo[d]imidazol-1-yl)oxazole-4-carboxamide]",devoid of activity,–,–
"O=C(Nc1ccccc1)c1cc(-n2cnc3ccccc32)cs1 [Compound 2f, 4-(1H-Benzo[d]imidazol-1-yl)-N-phenylthiophene-2-carboxamide]",inactive,–,–
"N#Cc1cc(-n2cnc3ccccc32)cs1 [Compound 4a, 4-(1H-Benzo[d]imidazol-1-yl)thiophene-2-carbonitrile]",inactive,–,–
"NCc1ccc(NC(=O)c2cc(-n3cnc4ccccc43)cs2)cc1 [Compound 2n, N-(4-(Aminomethyl)phenyl)-4-(1H-benzo[d]imidazol-1-yl)thiophene-2-carboxamide]",inactive,–,–
"NC(=O)c1cnc(-n2cnc3ccccc32)s1 [Compound 3i, 2-(1H-Benzo[d]imidazol-1-yl)thiazole-5-carboxamide]",devoid of activity,–,–
"CC(C)CCc1nc2ccccc2n1-c1csc(C(N)=O)c1 [Compound 7m, 4-(2-Isopentyl-1H-benzo[d]imidazol-1-yl)thiophene-2-carboxamide]",potencies very similar to the butyl analogue (7d),2.91 µM,–
"NC(=O)c1csc(-n2cnc3ccccc32)n1 [Compound 3h, 2-(1H-Benzo[d]imidazol-1-yl)thiazole-4-carboxamide]",devoid of activity,–,–
"NC(=O)c1ccc(-n2cnc3ccccc32)cc1 [Compound 3j, 4-(1H-Benzo[d]imidazol-1-yl)benzamide]",devoid of activity,–,–
"NC(=O)c1cc(-n2cnc3ccccc32)cs1 [Compound 2a, 4-(1H-Benzo[d]imidazol-1-yl)thiophene-2-carboxamide]",Weak hNOD2-agonistic activity,–,7.26 µM
"NC(=O)c1cc(-n2cnc3ccccc32)c[nH]1 [Compound 3d, 4-(1H-Benzo[d]imidazol-1-yl)-1H-pyrrole-2-carboxamide]",devoid of activity,–,–

# Continued, values first:
hNOD2-agonistic activity (in words) (human NOD2 reporter gene assay),EC50 [1],"EC50 (human NOD2 reporter gene assay, read-out: EC50 values, human NOD2 agonistic potency)",Compound
lower potency than the hit compound,8.26 µM,–,"CCCc1nc2ccccc2n1-c1csc(C(N)=O)c1 [Compound 7c, 4-(2-Propyl-1H-benzo[d]imidazol-1-yl)thiophene-2-carboxamide]"
lower potency than the hit compound,13.2 µM,–,"CCc1nc2ccccc2n1-c1csc(C(N)=O)c1 [Compound 7b, 4-(2-Ethyl-1H-benzo[d]imidazol-1-yl)thiophene-2-carboxamide]"
–,3.06 µM,–,"CCCCCCCCCc1nc2ccccc2n1-c1csc(C(N)=O)c1 [Compound 7h, 4-(2-Nonyl-1H-benzo[d]imidazol-1-yl)thiophene-2-carboxamide]"
weak activity,6.57 µM,–,"CCCCCc1nc2ccccc2n1-c1csc(C(=N)N)c1 [Compound 13b, 4-(2-Pentyl-1H-benzo[d]imidazol-1-yl)thiophene-2-carboximidamide]"
weak activity,7.02 µM,–,"CCCCCc1nc2ccccc2n1-c1csc(C(=O)NC)c1 [Compound 11c, N-Methyl-4-(2-pentyl-1H-benzo[d]imidazol-1-yl)thiophene-2-carboxamide]"
–,2.07 µM,–,"CCCCc1nc2ccccc2n1-c1csc(C(N)=O)c1 [Compound 7d, 4-(2-Butyl-1H-benzo[d]imidazol-1-yl)thiophene-2-carboxamide]"
lower potency than the hit compound,15.7 µM,–,"Cc1nc2ccccc2n1-c1csc(C(N)=O)c1 [Compound 7a, 4-(2-Methyl-1H-benzo[d]imidazol-1-yl)thiophene-2-carboxamide]"
weak activity,1.84 µM,–,"CCCCCc1nc2ccccc2n1-c1csc(C(=O)NO)c1 [Compound 11b, N-Hydroxy-4-(2-pentyl-1H-benzo[d]imidazol-1-yl)thiophene-2-carboxamide]"
–,2.2 µM,–,"CCCCCCCCc1nc2ccccc2n1-c1csc(C(N)=O)c1 [Compound 7g, 4-(2-Octyl-1H-benzo[d]imidazol-1-yl)thiophene-2-carboxamide]"
–,5.81 µM,–,"CCCCCCCCCCCc1nc2ccccc2n1-c1csc(C(N)=O)c1 [Compound 7i, 4-(2-Undecyl-1H-benzo[d]imidazol-1-yl)thiophene-2-carboxamide]"
inactive,–,–,"CCCCCCCCCCCCCc1nc2ccccc2n1-c1csc(C(N)=O)c1 [Compound 7j, 4-(2-Tridecyl-1H-benzo[d]imidazol-1-yl)thiophene-2-carboxamide]"
weakly active,5.65 µM,–,"CCCCc1nc2cnccc2n1-c1csc(C(N)=O)c1 [Compound 18b, 4-(2-Butyl-1H-imidazo[4,5-c]pyridin-1-yl)thiophene-2-carboxamide]"
inactive,–,–,"NC(=O)c1cc(-n2cnc3cnccc32)cs1 [Compound 18a, 4-(1H-Imidazo[4,5-c]pyridin-1-yl)thiophene-2-carboxamide]"
inactive,–,–,"NC(=O)c1cc(-n2cnc3c(N)nccc32)cs1 [Compound 19a, 4-(4-Amino-1H-imidazo[4,5-c]pyridin-1-yl)thiophene-2-carboxamide]"
